From US12492188B2, “1H-benzo[D]imidazole derivatives as TLR9 inhibitors for the treatment of fibrosis” (BRISTOL-MYERS SQUIBB COMPANY, priority 2020, dated 2025)
Like-named read-outs stand apart in the source and are kept apart here.

Key:
Format in all cases: cell-based
human TLR7 = target: T1, human TLR7 (Homo sapiens, UniProt Q9NYK1); assay: TLR7 inhibition reporter assay (HEK-Blue cells, secreted embryonic alkaline phosphatase reporter); conditions: HEK-Blue cells overexpressing human TLR7, stimulated with gardiquimod 7.5 μM; read-out: TLR 7 IC50
T1 construct: host or cells: HEK-Blue cells (HEK293-derived reporter line)
T1 sequence (Q9NYK1 27-1049): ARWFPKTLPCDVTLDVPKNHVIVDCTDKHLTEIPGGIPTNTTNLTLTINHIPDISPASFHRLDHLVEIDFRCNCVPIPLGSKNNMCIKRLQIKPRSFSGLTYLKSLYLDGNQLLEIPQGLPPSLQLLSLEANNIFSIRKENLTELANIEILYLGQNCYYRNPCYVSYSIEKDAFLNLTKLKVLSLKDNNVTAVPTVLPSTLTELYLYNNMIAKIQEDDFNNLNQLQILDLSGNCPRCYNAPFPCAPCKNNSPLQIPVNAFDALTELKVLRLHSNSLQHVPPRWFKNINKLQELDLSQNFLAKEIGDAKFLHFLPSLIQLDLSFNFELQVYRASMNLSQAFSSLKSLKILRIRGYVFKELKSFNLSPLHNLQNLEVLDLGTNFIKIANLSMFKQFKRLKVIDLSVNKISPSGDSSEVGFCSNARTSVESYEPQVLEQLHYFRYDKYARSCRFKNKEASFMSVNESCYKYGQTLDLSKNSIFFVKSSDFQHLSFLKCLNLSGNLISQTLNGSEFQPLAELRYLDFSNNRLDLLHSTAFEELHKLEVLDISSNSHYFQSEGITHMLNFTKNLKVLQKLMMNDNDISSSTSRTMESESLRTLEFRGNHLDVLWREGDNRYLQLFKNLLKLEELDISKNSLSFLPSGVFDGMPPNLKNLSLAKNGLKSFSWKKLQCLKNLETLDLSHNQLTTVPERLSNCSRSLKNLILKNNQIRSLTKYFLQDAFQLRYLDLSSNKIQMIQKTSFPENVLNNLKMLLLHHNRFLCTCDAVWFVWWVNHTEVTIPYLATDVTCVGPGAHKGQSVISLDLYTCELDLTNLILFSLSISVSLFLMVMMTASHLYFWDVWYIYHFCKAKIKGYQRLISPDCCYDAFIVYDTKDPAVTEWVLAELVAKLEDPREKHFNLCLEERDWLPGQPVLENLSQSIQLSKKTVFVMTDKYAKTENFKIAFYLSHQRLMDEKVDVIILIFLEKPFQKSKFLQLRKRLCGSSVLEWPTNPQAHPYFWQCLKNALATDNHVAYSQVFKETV
Procedure, shortened: (§1)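 Cells seeded at 15000 (TLR7), 20,000 (TLR8) or 25,000 (TLR9) per well; compound 0.05 nM–50 μM, 30 min RT pre-incubation. Agonists: gardiquimod 7.5 μM, R848 15.9 μM, ODN2006 5 nM respectively. 22 h, 37 °C; SEAP via HEK-Blue Detection; % inhibition vs agonist+DMSO and known-inhibitor wells.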

human TLR8 = target: T2, human TLR8 (Homo sapiens, UniProt Q9NR97); assay: TLR8 inhibition reporter assay (HEK-Blue cells, secreted embryonic alkaline phosphatase reporter); conditions: HEK-Blue cells overexpressing human TLR8, stimulated with R848 15.9 μM; read-out: TLR 8 IC50
T2 construct: host or cells: HEK-Blue cells (HEK293-derived reporter line)
T2 sequence (Q9NR97 27-1041): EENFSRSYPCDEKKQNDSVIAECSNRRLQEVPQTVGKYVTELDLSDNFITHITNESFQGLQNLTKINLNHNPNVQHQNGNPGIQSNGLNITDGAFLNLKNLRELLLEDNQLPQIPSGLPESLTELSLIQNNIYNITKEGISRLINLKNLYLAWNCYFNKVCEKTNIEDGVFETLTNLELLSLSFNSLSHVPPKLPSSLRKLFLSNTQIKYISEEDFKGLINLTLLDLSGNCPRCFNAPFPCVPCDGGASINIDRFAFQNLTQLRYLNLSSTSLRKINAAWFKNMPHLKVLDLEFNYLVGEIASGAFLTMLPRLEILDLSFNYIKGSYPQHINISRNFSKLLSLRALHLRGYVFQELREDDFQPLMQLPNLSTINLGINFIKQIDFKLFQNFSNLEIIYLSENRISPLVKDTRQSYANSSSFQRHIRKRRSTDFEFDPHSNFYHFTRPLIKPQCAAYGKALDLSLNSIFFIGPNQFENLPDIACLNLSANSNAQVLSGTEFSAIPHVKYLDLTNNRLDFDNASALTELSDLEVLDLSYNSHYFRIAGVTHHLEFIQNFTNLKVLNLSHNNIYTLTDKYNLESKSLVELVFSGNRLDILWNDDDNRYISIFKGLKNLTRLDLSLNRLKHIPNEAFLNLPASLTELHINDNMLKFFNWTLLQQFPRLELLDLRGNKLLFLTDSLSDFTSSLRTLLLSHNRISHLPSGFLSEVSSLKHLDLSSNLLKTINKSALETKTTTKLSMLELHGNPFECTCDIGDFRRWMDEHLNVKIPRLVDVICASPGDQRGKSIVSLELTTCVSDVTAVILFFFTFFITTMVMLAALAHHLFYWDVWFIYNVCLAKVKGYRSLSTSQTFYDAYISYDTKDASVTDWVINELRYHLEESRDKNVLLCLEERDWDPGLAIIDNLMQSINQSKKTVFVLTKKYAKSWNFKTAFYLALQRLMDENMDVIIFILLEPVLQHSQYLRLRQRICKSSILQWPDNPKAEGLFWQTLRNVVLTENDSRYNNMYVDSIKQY
Procedure, shortened: as §1

human TLR9 = target: T3, human TLR9 (Homo sapiens, UniProt Q9NR96); assay: TLR9 inhibition reporter assay (HEK-Blue cells, secreted embryonic alkaline phosphatase reporter)
T3 construct: host or cells: HEK-Blue cells (HEK293-derived reporter line)
T3 sequence (Q9NR96 26-1032): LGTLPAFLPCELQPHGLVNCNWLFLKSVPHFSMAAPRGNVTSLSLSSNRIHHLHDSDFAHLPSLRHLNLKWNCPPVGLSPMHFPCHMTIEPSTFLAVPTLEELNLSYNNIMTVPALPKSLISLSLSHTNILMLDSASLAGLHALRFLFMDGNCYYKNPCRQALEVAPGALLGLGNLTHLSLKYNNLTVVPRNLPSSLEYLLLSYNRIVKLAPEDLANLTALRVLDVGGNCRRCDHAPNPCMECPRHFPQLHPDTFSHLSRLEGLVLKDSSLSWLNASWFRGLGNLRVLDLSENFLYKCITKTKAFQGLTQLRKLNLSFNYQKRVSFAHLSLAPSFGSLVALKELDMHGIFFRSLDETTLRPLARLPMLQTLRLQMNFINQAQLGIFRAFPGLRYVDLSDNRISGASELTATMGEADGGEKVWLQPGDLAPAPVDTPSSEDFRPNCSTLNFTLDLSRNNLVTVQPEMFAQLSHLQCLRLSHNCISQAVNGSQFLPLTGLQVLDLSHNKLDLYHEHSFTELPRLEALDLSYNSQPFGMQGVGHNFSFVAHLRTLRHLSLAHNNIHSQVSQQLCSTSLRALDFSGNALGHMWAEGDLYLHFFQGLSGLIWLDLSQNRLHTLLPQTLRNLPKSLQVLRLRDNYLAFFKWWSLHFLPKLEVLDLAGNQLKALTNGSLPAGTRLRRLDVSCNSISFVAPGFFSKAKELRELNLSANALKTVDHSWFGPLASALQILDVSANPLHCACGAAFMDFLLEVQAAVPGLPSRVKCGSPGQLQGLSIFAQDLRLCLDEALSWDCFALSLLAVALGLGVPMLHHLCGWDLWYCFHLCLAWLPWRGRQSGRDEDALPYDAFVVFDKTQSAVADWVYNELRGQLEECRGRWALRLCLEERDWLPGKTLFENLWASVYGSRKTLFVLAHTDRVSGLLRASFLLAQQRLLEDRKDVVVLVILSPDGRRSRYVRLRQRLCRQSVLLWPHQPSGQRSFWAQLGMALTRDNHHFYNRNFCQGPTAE
Procedure, shortened: as §1

[1] = HEK-Blue cells overexpressing human TLR9, stimulated with ODN2006 5 nM, read-out: TLR 9 IC50
[2] = HEK-Blue human TLR9 reporter cells
[3] = HEK-Blue cells overexpressing human TLR9, stimulated with ODN2006 5 nM, 22 hour incubation, reporter readout

| Structure (SMILES) | IC50 (human TLR7) | IC50 (human TLR8) | IC50 (human TLR9; [1]) | IC50 (human TLR9; [2]) | IC50 (human TLR9; [3]) |
| --- | --- | --- | --- | --- | --- |
| COc1cc(-c2nc3c(C)cc(C4CCN(C5CC6CCC(C5)N6CC5CC5)CC4)cc3n2C)cn2ncnc12 (centres unmarked) [Example 358, 6-(6-(1-(8-(cyclopropylmethyl)-8-azabicyclo[3.2.1]octan-3-yl)piperidin-4-yl)-1,4-dimethyl-1H-benzo[d]imidazol-2-yl)-8-methoxy-[1,2,4]triazolo[1,5-a]pyridine] | 100 nM | 2800 nM | 8.1 nM | 8.1 nM | – |
| COc1cc(-c2nc3c(C)cc(C4CCN(C5CC6CCC(C5)N6CC(C)C)CC4)cc3[nH]2)cn2ncnc12 (centres unmarked) [Example 359, 6-(6-(1-(8-isobutyl-8-azabicyclo[3.2.1]octan-3-yl)piperidin-4-yl)-4-methyl-1H-benzo[d]imidazol-2-yl)-8-methoxy-[1,2,4]triazolo[1,5-a]pyridine] | 2900 nM | 14900 nM | 76 nM | 76 nM | – |
| COc1cc(-c2nc3c(C)cc(C4CCN(C5CC6CCC(C5)N6C5CC5)CC4)cc3[nH]2)cn2ncnc12 (centres unmarked) [Example 360, 6-(6-(1-(8-cyclopropyl-8-azabicyclo[3.2.1]octan-3-yl)piperidin-4-yl)-4-methyl-1H-benzo[d]imidazol-2-yl)-8-methoxy-[1,2,4]triazolo[1,5-a]pyridine] | 700 nM | 26300 nM | 9.7 nM | 9.7 nM | – |
| Cc1cc(-c2ccc(C3CCN(C4CCOCC4)CC3)cc2)cc2c1nc(-c1ccc(S(C)(=O)=O)cc1)n2C [Example 364, 1,4-dimethyl-2-(4-(methylsulfonyl)phenyl)-6-(4-(1-(tetrahydro-2H-pyran-4-yl)piperidin-4-yl)phenyl)-1H-benzo[d]imidazole] | > 50000 nM | > 50000 nM | – | – | 310 nM |
| Cc1cc(-c2ccc(C3CCN(C(C)C)CC3)nc2)cc2c1nc(-c1ccc(S(C)(=O)=O)cc1)n2C [Example 365, 6-(6-(1-isopropylpiperidin-4-yl)pyridin-3-yl)-1,4-dimethyl-2-(4-(methylsulfonyl)phenyl)-1H-benzo[d]imidazole] | 2100 nM | 14200 nM | – | – | 300 nM |
| Cc1cc(-c2ccc(N3CCC(N4CCCC4)CC3)cc2)cc2c1nc(-c1ccc(S(C)(=O)=O)cc1)n2C [Example 367, 1,4-dimethyl-2-(4-(methylsulfonyl)phenyl)-6-(4-(4-(pyrrolidin-1-yl)piperidin-1-yl)phenyl)-1H-benzo[d]imidazole] | 2300 nM | 1900 nM | 508 nM | – | 510 nM |
| Cc1cc(-c2ccc(N3CCC(N(C)C)CC3)cc2)cc2c1nc(-c1ccc(S(C)(=O)=O)cc1)n2C [Example 368, 1-(4-(1,4-dimethyl-2-(4-(methylsulfonyl)phenyl)-1H-benzo[d]imidazol-6-yl)phenyl)-N,N-dimethylpiperidin-4-amine] | 1400 nM | 1700 nM | 414 nM | – | 410 nM |
| Cc1cc(-c2ccc(CN3CC4(CN(C)C4)C3)cc2)cc2c1nc(-c1ccc(S(C)(=O)=O)cc1)n2C [Example 370, 1,4-dimethyl-6-(4-((6-methyl-2,6-diazaspiro[3.3]heptan-2-yl)methyl)phenyl)-2-(4-(methylsulfonyl)phenyl)-1H-benzo[d]imidazole] | 1800 nM | 4500 nM | – | – | 56 nM |
| Cc1cc(-c2ccc(CN3CC4(C3)CN(CC(C)C)C4)cc2)cc2c1nc(-c1ccc(S(C)(=O)=O)cc1)n2C [Example 371, 6-(4-((6-isobutyl-2,6-diazaspiro[3.3]heptan-2-yl)methyl)phenyl)-1,4-dimethyl-2-(4-(methylsulfonyl)phenyl)-1H-benzo[d]imidazole] | 1800 nM | 6800 nM | – | – | 55 nM |
| Cc1cc(-c2ccc(CN3CCC(N4CCCC4)CC3)cc2)cc2c1nc(-c1ccc(S(C)(=O)=O)cc1)n2C1CC1 [Example 372, 1-cyclopropyl-4-methyl-2-(4-(methylsulfonyl)phenyl)-6-(4-((4-(pyrrolidin-1-yl)piperidin-1-yl)methyl)phenyl)-1H-benzo[d]imidazole] | 1400 nM | 5100 nM | – | – | 54 nM |
